Entries after “also recorded” stand apart in the source; their conditions may differ.
Key:
[1] = tested on: erythrocyte count, WBC count, PLT and Hb; test: Haematological indicators (peripheral blood cells) after intravenous BBR; type: in vivo, SD rats; settings: rats, i.v. 2.5 mg/kg, 5, 30 and 120 min, vs control group, n = 8
Experimental: After 48 SD rats were fed adaptively for a week, they were randomly divided into the control group and i.v. group (24 rats per group). Then they were further divided into 5, 30, and 120 min subgroups (n = 8). The SD rats in the i.v. group were intravenously administrated with 2.5 mg/kg BBR, while the control group was intravenously administrated with 1 mL 0.9% physiological saline solution. The blood samples were collected from the retroorbital sinus to K2EDTA-coated tubes, and used for the evaluation of haematological indicators including erythrocyte count, white blood cell (WBC) count, platelet count (PLT) and Hb.

bovine hemoglobin (BHB) = molecular target: T1, bovine hemoglobin (BHB) (Bos taurus, UniProt P01966+P02070); test: Fluorescence quenching of BHB by BBR (Stern-Volmer) and thermodynamic parameters; type: binding; settings: for Ksv (Stern-Volmer quenching constant) / kq (quenching rate constant): BHB 2 × 10^−6 mol/L, pH 7.4; for ΔG° / ΔH° / ΔS°: BBR–BHB system
T1 construct: purchased Sigma Aldrich
T1 sequence (P01966 2-142 limits assumed): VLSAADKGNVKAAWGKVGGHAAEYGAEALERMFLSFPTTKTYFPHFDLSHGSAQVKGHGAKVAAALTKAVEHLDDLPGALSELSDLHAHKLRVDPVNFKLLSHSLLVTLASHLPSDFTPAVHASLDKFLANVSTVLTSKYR
T1 sequence (P02070 whole entry): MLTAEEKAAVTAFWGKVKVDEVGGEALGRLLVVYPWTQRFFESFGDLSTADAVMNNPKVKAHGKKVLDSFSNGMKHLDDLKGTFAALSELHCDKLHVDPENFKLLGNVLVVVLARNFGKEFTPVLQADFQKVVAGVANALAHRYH
Experimental: Firstly, 1.0 mL of BHB (2.0 × 10^−6 mol/L) was mixed with 1.0 mL of 0.05 mol/L Tris-HCl buffer (pH = 7.4). And then BHB was added with different amounts of 0.25 × 10^−3 mol/L stock solution of BBR with an increment of 0.25 × 10^−5 mol/L until 1.75 × 10^−5 mol/L. […] (excitation at 280 nm and emission wavelengths ranging from 295 to 400 nm). The synchronous fluorescence spectra were measured through simultaneous scanning of the excitation (λex = 240 nm) and emission monochromators while maintaining a constant wavelength interval between them (Δλ, 15 nm and 60 nm).
In addition, CD spectra were collected from 200 to 260 nm with three scans averaged for each CD spectrum. The molar ratio (1:1) of BHB: BBR was used for the measurement. Briefly, BHB and BBR were dissolved in Tris-HCl (pH 7.4), and the solutions were freeze-dried into powder. Raman spectra were measured from 2600 to 400 cm^−1 using the Nd-YAG laser (1064 nm). Due to the existence of inner filter effects, the fluorescence parameter was corrected using the equation: F=F0×10^(AEX+AEM/2) where F and F0 are the fluorescence intensity corrected and observed, respectively; AEX and AEM are the sums of the absorbance of samples at excitation and emission wavelengths (Chen et al., [2021]).
Fluorescence quenching could be used to explore the interaction between drugs and proteins, and further elucidate the interaction between small drug molecules and biological macromolecules at the molecular level. Due to the quenching mechanisms were usually classified as static and dynamic quenching, the Stern-Volmer equation was utilized to calculate the fluorescence quenching data (Wang et al., [2007]): F0/F=1+Ksv[Q]=1+kqτ0[Q] where F0 and F are the fluorescence intensities at the absence or presence of BBR after correction by Equation, respectively. Ksv is the Stern-Volmer quenching constant, while [Q] is the concentration of the quencher. In addition, kq is the quenching rate constant of the binding system, and τ0 is the lifetime of fluorescence at the absence of quencher ([…]) (Sousa et al., [2008]).
In our earlier research, we have explored the association constants and the number of binding sites, and we have learned that in a static quenching system when a small molecule combines with a set of sites on a macromolecule, some constant can be calculated from the following equation: lg(F0−F/F)=lgKa+nlg[Q] where F0 and F are the fluorescence intensities in the absence and presence of BBR after correction by Equation in Spectrum procedure, Ka and n mean the association constants and the number of the sites per BHB molecule. The interrelated results were shown in our previous work (Chen et al., [2021]).
The thermodynamic parameters were analyzed using the following equations: ln((Ka)2/(Ka)1)=(1/T1−1/T2)(ΔH°/R) ΔG°=ΔH°−TΔS°=−RTlnKa where (Ka)1, and (Ka)2 are the binding constants at T1 and T2 and, R is the universal gas constant. If ΔH° < 0 and ΔS° < 0, van der Waals’ interactions and hydrogen bonds are dominant the binding reaction. If ΔH° > 0 and ΔS° > 0, hydrophobic interactions play a major role in the binding reaction. When ΔH° < 0 and ΔS° > 0, the electrostatic forces are more important than other forces (Ross and Subramanian, [1981]). […] The large positive entropy is the marker of the disruption and release of protein-bound condensed ions and water molecules (Basu & Suresh Kumar, [2015]).

COc1ccc2cc3[n+](cc2c1OC)CCc1cc2c(cc1-3)OCO2 [BBR, Berberine]
Hb content [1]: significantly decreased; also recorded: significantly reduced
erythrocytes count [1]: significantly decreased; also recorded: significantly reduced
platelet count [1]: did not fluctuate obviously; also recorded: no significant effects
white blood count [1]: did not fluctuate obviously; also recorded: no significant effects
Ksv (Stern-Volmer quenching constant) (bovine hemoglobin (BHB); 293 K): 41272 L/mol
kq (quenching rate constant) (bovine hemoglobin (BHB); 293 K): 4.1272e+12 M⁻¹ s⁻¹
Ksv (Stern-Volmer quenching constant) (bovine hemoglobin (BHB); 298 K): 38445 L/mol
kq (quenching rate constant) (bovine hemoglobin (BHB); 298 K): 3.8445e+12 M⁻¹ s⁻¹
Ksv (Stern-Volmer quenching constant) (bovine hemoglobin (BHB); 310 K): 30957 L/mol
kq (quenching rate constant) (bovine hemoglobin (BHB); 310 K): 3.0957e+12 M⁻¹ s⁻¹
ΔG° (bovine hemoglobin (BHB); 293 K): -6.1902 kcal/mol
ΔH° (bovine hemoglobin (BHB); 293 K): -1.1352 kcal/mol
ΔS° (bovine hemoglobin (BHB); 293 K): 72.113 J mol^−1K^−1
ΔG° (bovine hemoglobin (BHB); 298 K): -6.2765 kcal/mol
ΔH° (bovine hemoglobin (BHB); 298 K): -1.1352 kcal/mol
ΔS° (bovine hemoglobin (BHB); 298 K): 72.114 J mol^−1K^−1
ΔG° (bovine hemoglobin (BHB); 310 K): -6.4493 kcal/mol
ΔH° (bovine hemoglobin (BHB); 310 K): -1.1352 kcal/mol
ΔS° (bovine hemoglobin (BHB); 310 K): 71.724 J mol^−1K^−1
quenching mechanism of BBR-BHB complex formation (bovine hemoglobin (BHB); Ksv and Kq decreased with increasing temperature): static quenching process
major force in the binding reaction (bovine hemoglobin (BHB); from negative ΔH° and positive ΔS°): electrostatic interaction
